According to ChEMBL document CHEMBL1201862, “PubChem BioAssay data set” (2004):
The source made the active and inactive calls.

Legend:
Bcl-2-like protein 10 = molecular target: T1, Bcl-2-like protein 10 (Homo sapiens, UniProt Q9HD36); test: displacers of TR3 peptide from Bcl-B, primary screen, selectivity assay for Bfl-1 inhibitor project, biochemical, fluorescence polarization, FITC-TR3 peptide (AID 748);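 also: fluorescence polarization from a fluorescein-labelled TR3 peptide binding purified Bcl-B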
T1 sequence (Q9HD36 whole entry): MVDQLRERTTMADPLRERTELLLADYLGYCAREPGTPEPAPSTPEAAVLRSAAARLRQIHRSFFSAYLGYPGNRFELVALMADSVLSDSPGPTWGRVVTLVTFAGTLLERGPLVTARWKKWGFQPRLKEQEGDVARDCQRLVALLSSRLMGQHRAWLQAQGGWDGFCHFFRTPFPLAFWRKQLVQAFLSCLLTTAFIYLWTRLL

Protein Tat = Protein Tat (Human immunodeficiency virus type 1 group M subtype B (isolate HXB2)(HIV-1), UniProt P04608); type: functional;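 also: tat binding to TAR RNA read out by fluorescence polarization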
[1] = molecular target: Eukaryotic translation initiation factor 4E (Mus musculus, UniProt P63073); test: eIF4E–eIF4G protein interaction inhibitors, dose response, biochemical, TR-FRET (AID 855); type: functional;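 also: potency for disrupting eIF4E binding to eIF4GI seen as loss of FRET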
[2] = molecular target: Sphingosine 1-phosphate receptor 2 (Homo sapiens, UniProt O95136); test: Dose Response Cell Based Assay for Agonists of the S1P2 Receptor. [Related pubchem assays: 729, 736, 843 ]; type: functional
[3] = molecular target: Glutathione-S-transferase (Schistosoma japonicum, UniProt Q26513); test: biotin-GST/anti-GST TR-FRET signal inhibitors, dose response, artefact control for Vif-APOBEC3G degradation inhibitor project, biochemical (AID 1117362); type: functional
Genome polyprotein = Genome polyprotein (dengue virus type 2, UniProt P29990); test: Dengue-2 NS5 methyltransferase inhibitors, primary screen, biochemical, confirmation dose response (AID 588689); type: functional
Aminopeptidase N = molecular target: T2, Aminopeptidase N (Plasmodium falciparum FcB1/Columbia, UniProt O96935); test: P. falciparum M1AAP inhibitors, biochemical, fluorogenic H-Leu-NHMec substrate, 1536-well (AID 1445); design: species or system Plasmodium falciparum 3D7, 3D7
T2 sequence (O96935 whole entry): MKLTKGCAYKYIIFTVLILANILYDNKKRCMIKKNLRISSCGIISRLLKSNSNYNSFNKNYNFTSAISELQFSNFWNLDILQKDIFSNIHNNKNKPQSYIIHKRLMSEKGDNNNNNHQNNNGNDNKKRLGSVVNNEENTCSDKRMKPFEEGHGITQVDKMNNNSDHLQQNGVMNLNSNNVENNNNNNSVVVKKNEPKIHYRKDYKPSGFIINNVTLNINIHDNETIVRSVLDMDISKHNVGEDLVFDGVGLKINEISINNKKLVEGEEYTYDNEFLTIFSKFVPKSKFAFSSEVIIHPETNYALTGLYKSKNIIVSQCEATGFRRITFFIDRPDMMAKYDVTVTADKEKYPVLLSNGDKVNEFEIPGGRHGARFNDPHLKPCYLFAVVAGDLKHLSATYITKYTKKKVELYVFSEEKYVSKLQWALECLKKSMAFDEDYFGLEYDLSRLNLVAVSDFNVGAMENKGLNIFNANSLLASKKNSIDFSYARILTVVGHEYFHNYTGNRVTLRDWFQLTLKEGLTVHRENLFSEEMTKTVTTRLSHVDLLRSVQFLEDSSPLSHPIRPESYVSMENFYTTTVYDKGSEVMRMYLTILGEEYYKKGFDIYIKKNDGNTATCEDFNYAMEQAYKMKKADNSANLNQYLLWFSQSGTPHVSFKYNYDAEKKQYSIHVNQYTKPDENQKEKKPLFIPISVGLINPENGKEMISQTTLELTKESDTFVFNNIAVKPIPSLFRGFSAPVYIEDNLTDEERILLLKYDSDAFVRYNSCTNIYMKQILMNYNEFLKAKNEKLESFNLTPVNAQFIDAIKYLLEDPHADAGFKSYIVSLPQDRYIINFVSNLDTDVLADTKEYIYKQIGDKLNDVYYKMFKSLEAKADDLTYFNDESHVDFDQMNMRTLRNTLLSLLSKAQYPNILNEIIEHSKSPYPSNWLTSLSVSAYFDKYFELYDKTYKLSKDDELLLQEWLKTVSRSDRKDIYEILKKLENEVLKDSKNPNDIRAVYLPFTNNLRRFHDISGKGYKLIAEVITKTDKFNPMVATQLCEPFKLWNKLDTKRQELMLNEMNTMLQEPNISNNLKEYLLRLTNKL

Protein RecA = molecular target: T3, Protein RecA (Mycobacterium tuberculosis, UniProt P9WHJ3); test: Fluorescence Cell-Free Homogeneous Dose Retest to Identify Inhibitors of RecA-Intein Splicing Activity. [Related pubchem assays (depositor defined):AID2097, AID2223, AID489010, AID492950]; type: functional
T3 sequence (P9WHJ3 whole entry): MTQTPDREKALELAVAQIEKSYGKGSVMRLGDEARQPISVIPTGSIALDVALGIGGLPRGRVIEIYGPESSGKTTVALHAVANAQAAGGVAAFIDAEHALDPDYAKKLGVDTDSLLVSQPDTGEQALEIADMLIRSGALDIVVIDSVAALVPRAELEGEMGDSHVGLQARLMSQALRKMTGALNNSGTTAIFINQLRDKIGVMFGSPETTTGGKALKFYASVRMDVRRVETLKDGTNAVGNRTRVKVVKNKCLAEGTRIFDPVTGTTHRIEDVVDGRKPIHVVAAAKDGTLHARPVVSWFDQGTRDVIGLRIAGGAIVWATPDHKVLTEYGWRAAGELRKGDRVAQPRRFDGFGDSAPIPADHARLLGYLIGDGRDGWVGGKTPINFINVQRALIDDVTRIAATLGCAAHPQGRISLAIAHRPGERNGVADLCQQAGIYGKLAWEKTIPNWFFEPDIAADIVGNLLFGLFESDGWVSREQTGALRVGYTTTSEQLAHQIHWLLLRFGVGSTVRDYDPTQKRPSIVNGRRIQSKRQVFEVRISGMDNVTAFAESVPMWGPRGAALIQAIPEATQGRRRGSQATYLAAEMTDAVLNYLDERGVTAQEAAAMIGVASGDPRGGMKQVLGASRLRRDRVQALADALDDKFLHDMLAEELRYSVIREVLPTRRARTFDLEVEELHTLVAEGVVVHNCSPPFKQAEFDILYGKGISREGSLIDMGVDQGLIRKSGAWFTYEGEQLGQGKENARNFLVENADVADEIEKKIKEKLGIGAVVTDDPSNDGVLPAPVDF

[4] = molecular target: Bifunctional protein GlmU (Mycobacterium tuberculosis, UniProt P9WMN3); test: Inhibitors of Mycobacterial Glucosamine-1-phosphate acetyl transferase (GlmU). Secondary screen.; design: species or system Mycobacterium tuberculosis H37Rv
[5] = molecular target: T4, Replicative DNA helicase DnaB (Mycobacterium tuberculosis, UniProt P9WMR3); test: DnaB intein splicing inhibitors, dose response, biochemical, cell-free fluorescence (AID 449749); type: functional
T4 sequence (P9WMR3 whole entry): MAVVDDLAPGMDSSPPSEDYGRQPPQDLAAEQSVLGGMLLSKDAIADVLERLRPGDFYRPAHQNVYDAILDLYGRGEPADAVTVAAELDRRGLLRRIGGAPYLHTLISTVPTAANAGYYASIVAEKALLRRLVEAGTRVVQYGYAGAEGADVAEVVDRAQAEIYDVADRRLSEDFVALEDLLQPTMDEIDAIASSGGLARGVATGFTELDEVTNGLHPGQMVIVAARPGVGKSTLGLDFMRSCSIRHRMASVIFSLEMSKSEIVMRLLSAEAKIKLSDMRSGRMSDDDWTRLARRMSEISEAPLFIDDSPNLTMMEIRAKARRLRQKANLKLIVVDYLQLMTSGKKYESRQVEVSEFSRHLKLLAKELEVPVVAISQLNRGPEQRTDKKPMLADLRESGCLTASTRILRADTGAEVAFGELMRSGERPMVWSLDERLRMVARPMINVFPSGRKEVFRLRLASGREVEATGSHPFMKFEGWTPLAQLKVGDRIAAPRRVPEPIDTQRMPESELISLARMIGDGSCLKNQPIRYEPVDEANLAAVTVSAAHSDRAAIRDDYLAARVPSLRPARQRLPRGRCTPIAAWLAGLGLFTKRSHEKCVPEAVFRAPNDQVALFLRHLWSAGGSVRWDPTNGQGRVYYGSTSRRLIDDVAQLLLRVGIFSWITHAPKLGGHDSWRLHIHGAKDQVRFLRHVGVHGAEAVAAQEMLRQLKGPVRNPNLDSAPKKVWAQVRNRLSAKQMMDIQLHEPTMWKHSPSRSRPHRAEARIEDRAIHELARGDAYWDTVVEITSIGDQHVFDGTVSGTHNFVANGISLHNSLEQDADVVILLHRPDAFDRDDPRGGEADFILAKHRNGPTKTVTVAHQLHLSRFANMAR

[6] = P. falciparum Dd2 growth inhibitors, dose response, SYBR Green, cherry-picked samples (AID 1159567); type: functional, cell-based
[7] = fibronectin fibrillogenesis inhibitors in fibroblasts, dose response, AH1F cells, Alexa488-fibronectin fluorescence, cherry-pick, set 2 (AID 1117283); type: functional, cell-based
[8] = A549 cell cytotoxicity, dose response, cytotoxicity control, cherry-picks, 26 µM top dose (AID 1053119); type: functional, cell-based
[9] = HepG2 cell cytotoxicity, dose response, cytotoxicity control, cherry-picked samples (AID 1159577); type: functional, cell-based
[10] = TB: CFU replicating Measured in Microorganism System Using Imaging - 7108-05_Inhibitor_Dose_DryPowder_Activity_Set2.; type: functional
[11] = A549 cell cytotoxicity, dose response, CellTiter-Glo luminescence, dry powder, set 17 (AID 1117284); type: functional, cell-based
[12] = inhibitors of orthopox intermediate gene expression, dose response, cell-based, single fluorophore reporter, dry powder (AID 1117271); type: functional
[13] = Single fluorophore orthopox expression reporter, late gene expression Measured in Cell-Based and Microorganism Combination System Using Plate Reader - 2142-08_Inhibitor_Dose_DryPowder_Activity.; type: functional
[14] = P. falciparum Dd2 growth inhibitors, dose response, SYBR Green, dry powder samples, set 9 (AID 1159568); type: functional, cell-based
[15] = C. neoformans growth inhibition with sorbitol, dose response, mechanism study for C. neoformans lysis project, alamar blue, dry powder, set 3 (AID 743304); type: functional, organism-based
[16] = HEK293T cell cytotoxicity, dose response, cytotoxicity control, plate reader, dry powder, set 10 (AID 743315); type: functional, cell-based; details: HEK293
[17] = P. falciparum Dd2 blood-stage growth inhibition, dose response, SYBR Green fluorescence, erythrocytes, dry powder, set 2 (AID 1159574); type: functional, cell-based
[18] = SNU-C1 cell viability reduction, dose response, CellTiter-Glo luminescence (AID 1117323); type: functional, cell-based
[19] = Concentration-dependent survival of SW480 colon cancer line, luminescence detection with CellTiter-Glo, half-maximal inhibitory concentration (AID 1117338); type: functional
[20] = cytotoxicity toward HT-29 cells – cell-based, CellTiter-Glo luminescence, IC50, dose response (AID 1117330); type: functional
[21] = RKO cell viability reduction, dose response, CellTiter-Glo luminescence (AID 1117322); type: functional
[22] = cytotoxicity toward HCT116 cells – cell-based, CellTiter-Glo luminescence, IC50, dose response (AID 1117332); type: functional; details: HCT-116
[23] = CellTiter-Glo luminescent dose response of DLD-1 viability loss (AID 1117352); type: functional

Chain of Protein Tat (P04608 whole entry): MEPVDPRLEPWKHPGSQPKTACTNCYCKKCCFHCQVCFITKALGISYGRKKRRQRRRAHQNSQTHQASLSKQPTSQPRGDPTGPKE
Chain of Genome polyprotein (P29990 2492-3391 limits assumed): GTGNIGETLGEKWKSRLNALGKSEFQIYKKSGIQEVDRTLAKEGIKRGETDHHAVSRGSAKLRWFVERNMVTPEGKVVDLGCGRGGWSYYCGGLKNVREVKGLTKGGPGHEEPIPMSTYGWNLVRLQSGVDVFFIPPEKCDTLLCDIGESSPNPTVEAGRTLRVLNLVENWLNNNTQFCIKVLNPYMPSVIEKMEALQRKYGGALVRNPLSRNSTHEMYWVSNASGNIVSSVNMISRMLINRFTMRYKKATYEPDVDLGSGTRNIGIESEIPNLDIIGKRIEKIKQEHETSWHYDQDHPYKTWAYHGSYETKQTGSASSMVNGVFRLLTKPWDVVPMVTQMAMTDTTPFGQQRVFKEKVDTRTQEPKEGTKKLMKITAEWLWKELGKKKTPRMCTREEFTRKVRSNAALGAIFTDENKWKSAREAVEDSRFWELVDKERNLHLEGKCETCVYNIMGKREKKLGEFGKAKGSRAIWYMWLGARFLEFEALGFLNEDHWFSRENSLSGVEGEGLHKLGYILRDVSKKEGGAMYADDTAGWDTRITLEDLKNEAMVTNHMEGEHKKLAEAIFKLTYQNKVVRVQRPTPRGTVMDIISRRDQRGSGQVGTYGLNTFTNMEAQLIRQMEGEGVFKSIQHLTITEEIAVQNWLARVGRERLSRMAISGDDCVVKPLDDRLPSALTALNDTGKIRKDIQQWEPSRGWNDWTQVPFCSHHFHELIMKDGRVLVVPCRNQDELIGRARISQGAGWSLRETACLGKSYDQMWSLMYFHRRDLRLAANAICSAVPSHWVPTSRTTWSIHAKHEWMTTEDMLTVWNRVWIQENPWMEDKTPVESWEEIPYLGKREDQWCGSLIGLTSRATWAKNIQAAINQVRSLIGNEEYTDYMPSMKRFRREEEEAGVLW
Chain of Eukaryotic translation initiation factor 4E (P63073 whole entry): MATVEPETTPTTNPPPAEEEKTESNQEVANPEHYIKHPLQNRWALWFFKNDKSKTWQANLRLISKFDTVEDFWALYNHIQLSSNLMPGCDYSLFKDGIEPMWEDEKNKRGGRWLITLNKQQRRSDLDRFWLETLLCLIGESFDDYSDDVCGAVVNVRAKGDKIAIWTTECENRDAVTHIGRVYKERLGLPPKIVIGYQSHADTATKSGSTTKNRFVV
Chain of Sphingosine 1-phosphate receptor 2 (O95136 whole entry): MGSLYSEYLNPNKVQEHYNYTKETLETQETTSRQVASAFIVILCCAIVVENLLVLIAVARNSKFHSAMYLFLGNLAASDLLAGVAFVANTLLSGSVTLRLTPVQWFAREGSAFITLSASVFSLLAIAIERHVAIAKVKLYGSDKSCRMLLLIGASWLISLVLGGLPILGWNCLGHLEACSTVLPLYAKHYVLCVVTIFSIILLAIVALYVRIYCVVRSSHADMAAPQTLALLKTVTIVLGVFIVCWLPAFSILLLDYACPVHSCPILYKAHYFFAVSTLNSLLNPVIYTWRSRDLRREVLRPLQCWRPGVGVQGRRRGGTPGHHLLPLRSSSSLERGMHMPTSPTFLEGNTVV
Chain of Glutathione-S-transferase (Q26513 whole entry): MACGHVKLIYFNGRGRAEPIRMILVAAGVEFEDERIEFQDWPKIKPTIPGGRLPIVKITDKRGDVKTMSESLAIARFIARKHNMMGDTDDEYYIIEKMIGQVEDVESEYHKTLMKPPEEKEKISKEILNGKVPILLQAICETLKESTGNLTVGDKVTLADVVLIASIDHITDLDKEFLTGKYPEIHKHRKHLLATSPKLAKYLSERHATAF
Chain of Bifunctional protein GlmU (P9WMN3 whole entry): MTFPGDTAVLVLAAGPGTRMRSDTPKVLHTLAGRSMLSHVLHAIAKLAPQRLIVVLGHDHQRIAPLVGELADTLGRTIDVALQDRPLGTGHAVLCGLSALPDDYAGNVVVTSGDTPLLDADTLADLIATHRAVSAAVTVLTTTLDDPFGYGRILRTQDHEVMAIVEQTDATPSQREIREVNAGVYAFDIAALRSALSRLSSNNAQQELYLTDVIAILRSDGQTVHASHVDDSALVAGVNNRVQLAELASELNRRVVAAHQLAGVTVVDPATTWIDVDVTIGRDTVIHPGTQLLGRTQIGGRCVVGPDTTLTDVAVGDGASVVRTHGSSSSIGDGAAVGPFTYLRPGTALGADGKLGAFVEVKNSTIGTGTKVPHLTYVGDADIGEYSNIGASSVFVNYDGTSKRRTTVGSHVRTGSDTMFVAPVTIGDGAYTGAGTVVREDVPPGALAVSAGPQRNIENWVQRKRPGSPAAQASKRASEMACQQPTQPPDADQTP

O=C1c2ccccc2CC1Sc1nnc(-c2ccccn2)o1 (stereo not drawn)
IC50 (Bcl-2-like protein 10): > 100 µM (inactive)
IC50 (Protein Tat): > 100 µM (active)

CCOc1cccc(OCCCCn2ccnc2)c1
IC50 [1]: > 64 µM (inactive)
EC50 [2]: > 50 µM (not active)

O=C(O)c1ccc(S(=O)(=O)c2ccc([N+](=O)[O-])cc2[N+](=O)[O-])cc1
IC50 [3]: > 100 µM (active)

CC1=NN(c2ccc(Cl)c(C(=O)O)c2)C(=O)/C1=C\c1ccc(-c2ccc(C(=O)O)cc2)o1
IC50 (Genome polyprotein): 19.4 µM (active)
IC50 (Aminopeptidase N): 2.41 µM (active)
EC50 (Protein RecA): 0.4 µM (active)
IC50 [4]: 94.1 µM (active)
AC50 [5]: 0.484 µM (active)

C[C@@H]1CN([C@@H](C)CO)C(=O)c2cccc(NC(=O)Nc3ccc(C(F)(F)F)cc3)c2O[C@H]1CN(C)C(=O)Nc1cccc2ccccc12
AC50 [6]: 7.88 µM (active)
AC50 [7]: > 70 µM (inactive)
AC50 [8]: > 52 µM (inactive)
AC50 [9]: > 39 µM (inactive)

Cn1c(NC(=O)c2ccccn2)nc2ccccc21
AbsAC90 [10]: 274.28 µM

C[C@@H](O)C#Cc1ccc2c(c1)O[C@@H](CN(C)Cc1ccc(-c3cccc(Cl)c3)cc1)[C@@H](C)CN([C@@H](C)CO)S2(=O)=O
AC50 [11]: 51.5 µM (active)
AC50 [12]: 3.58 µM (active)
AC50 [13]: 2.54 µM (active)

CCCNC(=O)N1[C@H](C#N)[C@@H](c2ccccc2-c2cccc(C)c2)[C@@H]1CO
AC50 [14]: 10.2 µM (active)

CSc1nc2ccccc2n1CCOc1cc(C)ccc1C(C)C
AC50 [15]: 41.6 µM (active)
AC50 [16]: > 52 µM (inactive)

COc1ccc(NC(=O)N2CCCCN3[C@H](CO)[C@@H](c4ccc(C#Cc5ccccc5)cc4)[C@H]3C2)cc1
AC50 [17]: 4.04 µM (active)

[N-]=[N+]=CC(=O)OC[C@H](N)C(=O)O [AZASERINE]
IC50 [18]: > 20 µM (inactive)
IC50 [19]: > 20 µM (inactive)
IC50 [20]: > 20 µM (inactive)
IC50 [21]: > 20 µM (inactive)
IC50 [22]: > 20 µM (inactive)
IC50 [23]: > 20 µM (inactive)
